≈ marks a conversion by molar mass, not a printed value. Where “and” joins values, the source holds several entries; their conditions need not be identical. Equal values may be shown once.
How the values were obtained:
[1] = Hydrogen peroxide oxidation of PAHs at near neutral pH (modified Fenton's reagent) in Quakertown silt loam
[2] = Fenton reaction degradation of PAHs in MGP soil; conditions: FR: Fenton's reagent treatment for 24 hours
Excerpt: Coal tar-contaminated soil was collected from a former manufactured gas plant site in New Jersey. The soil was classified as loamy sand, consisting of 78% sand, 11% silt, and 11% clay.
Fenton's reagent was generated by mixing hydrogen peroxide (30%, w/v) with FeSO4.7H2O in varying ratios to determine the optimum conditions for the degradation of PAHs. The sequence of reagent addition seemed to be important to ensure that the reaction occurred efficiently, as well as to ensure that the reaction could be safely maintained. Desired amounts of ferrous sulfate were added to 10 g of PAHs-spiked soil or 5 g of MGP soil in 20 mL of distilled water containing 0.02% HgCl2. To the soil slurry, hydrogen peroxide was introduced gradually by pipetting (ca. 0.3 g each with 10-min intervals), and the reaction was allowed to occur for 24 h on an orbital platform shaker at room temperature.
The soil slurry used for either biodegradation or Fenton-type reaction, or both, was transferred to a 50-mL Teflon centrifuge tube and centrifuged at 18,600× g for 15 min. After removing the supernatant, 10 mL each of dichloromethane and acetone were added to the soil and the soil-solvent suspension was shaken (200 rpm) for 48 h at 30° C. for the extraction of PAHs. The tube was then centrifuged at 18,600× g for 15 min and the solvent mixture was transferred to a 50-mL test tube. After removing excess water (upper layer; ca. 2 mL) by pipetting, 4 g of anhydrous sodium sulfate were mixed with the PAHs-containing solvent to remove residual water completely from solvent. […] The extract was then concentrated to 1 to 2 mL using an evaporator (Büchi Rotavapor; Buchler Instruments Inc., Fort Lee, N.J.) for further analysis.
The extract was passed through a 0.45-μm PTFE syringe filter to remove any particulates present and analyzed by a gas chromatograph (GC) equipped with a flame ionization detector (Varian Star 3500; Varian Chromatograph Systems, Walnut, Calif.). The GC was installed with a Rtx-5 silica column crossbonded with 5% diphenyl and 95% dimethylpolysiloxane (30 m×0.53 mm inner diameter; Restek Corporation, Bellefonte, Pa.). The oven temperature was programmed at 40° C. for 6 min, followed by a linear increase of 10° C. per minute to 300° C., and then the temperature was held for 15 min. Injector and detector temperatures were maintained at 300° C. Two microliters of the extract were injected and nitrogen was used as a carrier gas.

[3] = at 20° C.; cited from earlier work
[4] = Logarithm of the octanol: water partition coefficient; cited from earlier work
[5] = Fenton reaction degradation of PAHs in Quakertown silt loam; conditions: for % reduced / degraded by Fenton reaction: ratio 10:1 ([H2O2:FeSO4]=[2.0 g:0.2 g]), 24-h oxidation, model soil
[6] = Crystal solubility at 25° C.; cited from earlier work
[7] = mFR + gallic acid, pH ca. 6.0-6.5
[8] = Hydrogen Peroxide (2g), 100 mg Ferrous Sulfate, Quakertown silt loam
[9] = Hydrogen Peroxide (2g), 200 mg Ferrous Sulfate, Data from TABLE 3
[10] = Hydrogen Peroxide (2g), No FeSO4, Quakertown silt loam
[11] = ratio 5:1, [H2O2:FeSO4] = [1.0 g:0.2 g], 24 h, Quakertown silt loam
[12] = ratio 10:1 (footnote d), [H2O2:FeSO4] = [0.2 g:0.2 g] [sic], 24 h, Quakertown silt loam
[13] = ratio 10:1 (footnote e), [H2O2:FeSO4] = [1.0 g:0.1 g], 24 h, Quakertown silt loam
[14] = ratio head 1.1, [H2O2:FeSO4] = [0.2 g:0.2 g], 24 h, Quakertown silt loam

Row | SMILES | % remaining in soil ([1]; FR + CaCO3, pH ca. 6.0-6.5) [a %] | % remaining in soil ([1]; mFR + catechol, pH ca. 6.0-6.5) | % remaining in soil [1, 7] [b %] | % remaining in soil [2] | Vapor Pressure [3] | Log Kow [4] | % remaining in soil [5, 8] | % remaining in soil [5, 9] | % remaining in soil [5, 10] | % remaining in soil [5, 11] [b %] | % remaining in soil [5, 12] | % remaining in soil [5, 13] | % remaining in soil [5, 14] [a %] | Solubility in water [6] [mg/L] | % reduced / degraded by Fenton reaction [5]
1 | c1cc2ccc3cccc4ccc(c1)c2c34 [Pyrene, pyrene] | 77.1 | 58.3b % | 58.9 | 53.4a % | 6.8 × 10^−7 | 5.32 | 16.3b % | 15.5c % | 88.3a % | 51.0 | 15.5c % | 26.3d % | 95.4 | – | –
2 | c1ccc2c(c1)ccc1ccccc12 [Phenanthrene, phenanthrene] | – | – | – | 16.8a % | 6.8 × 10^−4 | 4.46 | – | – | – | – | – | – | – | 1.0 (≈ 5.61 µM) | –
3 | c1ccc2cc3ccccc3cc2c1 [Anthracene, anthracene] | 78.1 | 70.8ab % | 66.8 | – | 1.9 × 10^−4 | 4.45 | 76.3b % | 61.9c % | 92.7a % | 75.9 | 61.9c % | 79.3b % | 100 | 0.07 (≈ 0.393 µM) | about 40%
4 | c1ccc2c(c1)cc1ccc3cccc4ccc2c1c34 [Benzo(a)pyrene, benzo(a)pyrene] | 73.1 | 54.8b % | 49.6 | – | – | – | 10.5b % | 3.3c % | 73.2a % | 35.3 | 3.3% and 3.3c % | 60.9d % | 84.8 | – | –
5 | c1ccc2ccccc2c1 [Naphthalene, naphthalene] | – | – | – | – | 4.9 × 10^−2 | – | – | – | – | – | – | – | – | 32 (≈ 250 µM) | –
6 | c1ccc2c(c1)ccc1c3ccccc3ccc21 [Chrysene, chrysene] | 100 | 100a % | 91.1 | 50.8b % | 6.3 × 10^−7 | 5.61 | 72.6a % | 88.1b % | 77.0ab % | 87.0 | 88.1b % | 98.2c % | 100 | 0.006 (≈ 0.0263 µM) | ~12%
7 | c1ccc2c(c1)Cc1ccccc1-2 [Fluorene, fluorene] | – | – | – | 10.3a % | 1.3 × 10^−2 | 4.18 | – | – | – | – | – | – | – | – | –
